We go through 19 compounds from patent US11180474B2 (BRISTOL-MYERS SQUIBB COMPANY, priority 2016, dated 2021).

Each structure is given as a SMILES string.

The target of experiment [1] is T1, human TLR8 (Homo sapiens, UniProt Q9NR97).
T1 construct: host or cells: HEK-Blue cells
T1 sequence (Q9NR97 27-1041): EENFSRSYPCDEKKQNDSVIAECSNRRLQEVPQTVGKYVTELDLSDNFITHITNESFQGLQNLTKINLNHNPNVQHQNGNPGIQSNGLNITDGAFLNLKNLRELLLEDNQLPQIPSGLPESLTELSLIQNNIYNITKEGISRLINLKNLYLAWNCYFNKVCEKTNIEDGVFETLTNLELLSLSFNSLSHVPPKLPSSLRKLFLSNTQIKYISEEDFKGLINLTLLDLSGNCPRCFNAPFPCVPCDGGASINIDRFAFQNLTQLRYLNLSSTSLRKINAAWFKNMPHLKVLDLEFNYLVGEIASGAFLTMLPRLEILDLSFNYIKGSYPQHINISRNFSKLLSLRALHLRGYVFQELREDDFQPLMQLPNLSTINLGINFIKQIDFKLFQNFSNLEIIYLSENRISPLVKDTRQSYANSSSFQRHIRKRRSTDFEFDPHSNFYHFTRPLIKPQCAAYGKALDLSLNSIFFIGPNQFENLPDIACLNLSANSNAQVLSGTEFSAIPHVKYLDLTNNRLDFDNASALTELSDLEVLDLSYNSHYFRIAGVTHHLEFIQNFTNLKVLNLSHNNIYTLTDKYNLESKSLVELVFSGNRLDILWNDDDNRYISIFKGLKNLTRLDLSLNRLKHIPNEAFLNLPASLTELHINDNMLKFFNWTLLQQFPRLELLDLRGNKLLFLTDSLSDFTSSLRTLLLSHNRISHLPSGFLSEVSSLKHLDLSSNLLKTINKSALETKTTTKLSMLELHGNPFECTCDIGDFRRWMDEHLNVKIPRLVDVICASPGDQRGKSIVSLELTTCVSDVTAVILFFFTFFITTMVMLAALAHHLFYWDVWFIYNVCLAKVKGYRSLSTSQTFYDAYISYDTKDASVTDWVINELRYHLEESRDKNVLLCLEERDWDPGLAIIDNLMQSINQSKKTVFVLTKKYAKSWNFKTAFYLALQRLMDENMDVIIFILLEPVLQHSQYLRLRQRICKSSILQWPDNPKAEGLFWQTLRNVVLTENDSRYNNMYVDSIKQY
Kind of experiment: TLR8 inhibition reporter assay (HEK-Blue cells, SEAP reporter, R848 stimulation). Format: cell-based. As to conditions: HEK-Blue cells overexpressing human TLR8, R848 15.9 μM. In short, it runs like this: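 HEK-Blue reporter cells (15,000/well TLR7, 20,000 TLR8) exposed to compound over 0.05 nM–50 μM, agonist-stimulated (R848 for TLR8, gardiquimod for TLR7), 22 h at 37 °C, 5% CO2. SEAP read with HEK-Blue Detection; % inhibition relative to agonist-plus-DMSO and known-inhibitor controls.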
(In general: A reporter such as luciferase makes a cellular process visible.)

Experiment [2] has as its target T2, human TLR9 (Homo sapiens, UniProt Q9NR96).
T2 construct: host or cells: HEK-Blue cells
T2 sequence (Q9NR96 26-1032): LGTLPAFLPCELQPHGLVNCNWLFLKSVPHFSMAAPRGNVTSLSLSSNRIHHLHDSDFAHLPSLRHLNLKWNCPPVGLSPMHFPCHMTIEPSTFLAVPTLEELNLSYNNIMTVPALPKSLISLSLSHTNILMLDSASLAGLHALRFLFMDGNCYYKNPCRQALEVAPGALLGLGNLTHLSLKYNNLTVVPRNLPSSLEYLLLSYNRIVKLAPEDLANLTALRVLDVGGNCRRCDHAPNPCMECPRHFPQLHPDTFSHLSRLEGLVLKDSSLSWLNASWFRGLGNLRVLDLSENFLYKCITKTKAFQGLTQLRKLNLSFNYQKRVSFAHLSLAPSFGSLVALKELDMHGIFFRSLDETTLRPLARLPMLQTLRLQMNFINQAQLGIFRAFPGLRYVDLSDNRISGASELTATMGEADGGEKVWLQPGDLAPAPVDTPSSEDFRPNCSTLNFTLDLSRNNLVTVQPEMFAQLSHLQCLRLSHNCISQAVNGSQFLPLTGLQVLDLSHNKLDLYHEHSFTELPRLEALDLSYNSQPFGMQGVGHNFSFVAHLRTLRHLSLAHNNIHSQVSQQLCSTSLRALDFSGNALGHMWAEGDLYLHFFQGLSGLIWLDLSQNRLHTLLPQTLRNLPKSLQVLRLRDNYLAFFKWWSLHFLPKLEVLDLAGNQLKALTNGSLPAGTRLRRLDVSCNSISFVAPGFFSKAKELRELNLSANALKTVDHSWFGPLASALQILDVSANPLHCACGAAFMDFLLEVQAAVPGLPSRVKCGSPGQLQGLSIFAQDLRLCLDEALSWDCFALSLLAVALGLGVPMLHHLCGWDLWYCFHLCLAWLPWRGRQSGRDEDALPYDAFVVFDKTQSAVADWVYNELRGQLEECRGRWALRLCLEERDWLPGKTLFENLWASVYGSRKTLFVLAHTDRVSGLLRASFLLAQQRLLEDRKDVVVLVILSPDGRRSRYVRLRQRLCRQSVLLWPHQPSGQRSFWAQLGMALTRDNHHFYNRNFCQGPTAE
Description: TLR9 inhibition reporter assay (HEK-Blue cells, SEAP reporter, ODN2006 stimulation). Format: cell-based. Particulars: HEK-Blue cells overexpressing human TLR9, ODN2006 5 nM. In short, it runs like this: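 Agonists used: gardiquimod 7.5 μM (TLR7), R848 15.9 μM (TLR8), ODN2006 5 nM (TLR9), added after 30 min room-temperature compound pre-treatment (0.05 nM–50 μM) of receptor-overexpressing HEK-Blue cells. SEAP reporter (NF-κB/AP-1 driven) read after 22 h at 37 °C; inhibition scaled between agonist+DMSO and reference-inhibitor wells.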

`COc1ccc(-c2[nH]c3ccc(C4CCN(C(C)CO)CC4)cc3c2C)cc1OC` (centres unmarked) [Example 43, 2-(4-(2-(3,4-dimethoxyphenyl)-3-methyl-1H-indol-5-yl)piperidin-1-yl)propan-1-ol]: the IC50 in experiment [1] amounted to 926 nM; in experiment [2], 2760 nM.
Regarding `COc1ccc(-c2[nH]c3ccc(C4CCN(CC5CCCCN5C)CC4)cc3c2C)cc1OC` (centres unmarked) [Example 49, 2-(3,4-dimethoxyphenyl)-3-methyl-5-(1-((1-methylpiperidin-2-yl)methyl)piperidin-4-yl)-1H-indole], the concentration for half-maximal inhibition (IC50) in experiment [1] came to 260 nM; in experiment [2], 550 nM.
For `CCN1CCCC(N2CCC(c3ccc4[nH]c(-c5ccc(OC)c(OC)c5)c(C)c4c3)CC2)CC1` (centres unmarked) [Example 97, 2-(3,4-dimethoxyphenyl)-5-(1-(1-ethylazepan-4-yl)piperidin-4-yl)-3-methyl-1H-indole], in that order: 196 nM and 397 nM.
As to `COc1ccc(-c2[nH]c3ccc(C4CCN(C5CCN(CCC(F)(F)F)CC5)CC4)cc3c2C)cc1OC` [Example 50, 2-(3,4-dimethoxyphenyl)-3-methyl-5-(1′-(3,3,3-trifluoropropyl)-[1,4′-bipiperidin]-4-yl)-1H-indole], the IC50 in experiment [1] amounted to 510 nM; in experiment [2], 442 nM.
For `COc1ccc(-c2[nH]c3ccc(C4CCN(C5CCN(CC6CC6)CC5)CC4)cc3c2C)cc1OC` [Example 3, 5-(1′-(cyclopropylmethyl)-[1,4′-bipiperidin]-4-yl)-2-(3,4-dimethoxyphenyl)-3-methyl-1H-indole] the same measures were 216 nM and 117 nM.
`COc1ccc(-c2[nH]c3ccc(C4CCN(C5CCN(C(C)C)CC5)CC4)cc3c2CC(F)(F)F)cc1OC` [Example 412, 2-(3,4-dimethoxyphenyl)-5-(1′-isopropyl-[1,4′-bipiperidin]-4-yl)-3-(2,2,2-trifluoroethyl)-1H-indole]: the concentration for half-maximal inhibition (IC50) in experiment [1] was 21 nM; in experiment [2], 247 nM.
For `COc1ccc(-c2[nH]c3ccc(C4CCN(C5CCCN(CC6CC6)CC5)CC4)cc3c2C)cc1OC` (centres unmarked) [Example 94, 5-(1-(1-(cyclopropylmethyl)azepan-4-yl)piperidin-4-yl)-2-(3,4-dimethoxyphenyl)-3-methyl-1H-indole], in that order: 281 nM and 195 nM.
For `COc1ccc(-c2[nH]c3ccc(C4CCN(C(=O)CN5CCCN(C)CC5)CC4)cc3c2C)cc1OC` [Example 410, 1-(4-(2-(3,4-dimethoxyphenyl)-3-methyl-1H-indol-5-yl)piperidin-1-yl)-2-(4-methyl-1,4-diazepan-1-yl)ethan-1-one] the same measures were 21100 nM and 5250 nM.
For the compound `COc1ccc(-c2[nH]c3ccc(C4CCN(C5CCN(C6CCCC6)CC5)CC4)cc3c2C)cc1OC` [Example 62, 5-(1′-cyclopentyl-[1,4′-bipiperidin]-4-yl)-2-(3,4-dimethoxyphenyl)-3-methyl-1H-indole], the IC50 in experiment [1] came out at 217 nM; in experiment [2], 196 nM.
For `COc1ccc(-c2[nH]c3ccc(C4CCN(C5CCN(Cc6ccco6)CC5)CC4)cc3c2C)cc1OC` [Example 76, 2-(3,4-dimethoxyphenyl)-5-(1′-(furan-2-ylmethyl)-[1,4′-bipiperidin]-4-yl)-3-methyl-1H-indole], in that order: 238 nM and 172 nM.
For `COc1ccc(-c2[nH]c3ccc(C4CCN(C5CCN(C6CCC(O)CC6)CC5)CC4)cc3c2C)cc1OC` (centres unmarked) [Example 84, 4-(4-(2-(3,4-dimethoxyphenyl)-3-methyl-1H-indol-5-yl)-[1,4′-bipiperidin]-1′-yl)cyclohexan-1-ol] the same measures were 143 nM and 192 nM.
For `CCN(CC)C(=O)C1CCCN(CC(=O)N2CCC(c3ccc4[nH]c(-c5ccc(OC)c(OC)c5)c(CC(F)(F)F)c4c3)CC2)C1` (centres unmarked) [Example 421, 1-(2-(4-(2-(3,4-dimethoxyphenyl)-3-(2,2,2-trifluoroethyl)-1H-indol-5-yl)piperidin-1-yl)-2-oxoethyl)-N,N-diethylpiperidine-3-carboxamide] the same measures were 71 nM and 2280 nM.
As to `COc1ccc(-c2[nH]c3ccc(C4CCN(C(=O)CN5CCCC(C(=O)N(C)C)C5)CC4)cc3c2CC(F)(F)F)cc1OC` (centres unmarked) [Example 419, 1-(2-(4-(2-(3,4-dimethoxyphenyl)-3-(2,2,2-trifluoroethyl)-1H-indol-5-yl)piperidin-1-yl)-2-oxoethyl)-N,N-dimethylpiperidine-3-carboxamide], the figures for the IC50 in experiment [1] and in experiment [2] were 47 nM and 2950 nM, respectively.
For `CCN1CCC(N2CCC(c3ccc4[nH]c(-c5ccc(OC)c(OC)c5)c(C)c4c3)CC2)CC1` [Example 44, 2-(3,4-dimethoxyphenyl)-5-(1′-ethyl-[1,4′-bipiperidin]-4-yl)-3-methyl-1H-indole] the same measures were 926 nM and 301 nM.
For `CNCC(=O)N1CCC(c2ccc3[nH]c(-c4ccc(OC)c(OC)c4)c(CC(F)(F)F)c3c2)CC1` [Example 414, 1-(4-(2-(3,4-dimethoxyphenyl)-3-(2,2,2-trifluoroethyl)-1H-indol-5-yl)piperidin-1-yl)-2-(methylamino)ethanone], in that order: 86 nM and 1170 nM.
For `C#CCCCCC(=O)NCCN1CCC(c2ccc3[nH]c(-c4ccc(OC)c(OC)c4)c(C(C)C)c3c2)CC1` [Example 411, N-(2-(4-(2-(3,4-dimethoxyphenyl)-3-isopropyl-1H-indol-5-yl)piperidin-1-yl)ethyl)hept-6-ynamide] the same measures were 36 nM and 3890 nM.
Consider `COc1ccc(-c2[nH]c3ccc(C4CCN(C5CCN(CC6CCCC6)CC5)CC4)cc3c2C)cc1OC` [Example 65, 5-(1′-(cyclopentylmethyl)-[1,4′-bipiperidin]-4-yl)-2-(3,4-dimethoxyphenyl)-3-methyl-1H-indole], for which the IC50 came to 41400 nM in experiment [1] and 112 nM in experiment [2].
For `COc1ccc(-c2[nH]c3ccc(C4CCN(C5CCN(C6CCCCC6)CC5)CC4)cc3c2C)cc1OC` [Example 68, 5-(1′-cyclohexyl-[1,4′-bipiperidin]-4-yl)-2-(3,4-dimethoxyphenyl)-3-methyl-1H-indole] the same measures were 182 nM and 88 nM.
Consider `COc1ccc(-c2[nH]c3ccc(C4CCN(C5CCN(CC(C)(C)CO)CC5)CC4)cc3c2C)cc1OC` [Example 69, 3-(4-(2-(3,4-dimethoxyphenyl)-3-methyl-1H-indol-5-yl)-[1,4′-bipiperidin]-1′-yl)-2,2-dimethylpropan-1-ol], for which the IC50 is 317 nM in experiment [1] and 174 nM in experiment [2].

The IC50 is the concentration that inhibits the measured activity by half. Read a low IC50 as greater potency in that assay.
